Reference: patent US8327467B2, “Anthranilic acid derivative or salt thereof” (Toyama Chemical Co., Ltd., priority 2005, dated 2012)
Where a name gives a salt, the structure may show the parent alone.

System: MMP-13
Test: MMP-13 production inhibition test
Assay type: cell-based
Settings: 30 μmol/L; human cartilage derived cell line SW1353, IL-1β 10 ng/mL, 16 hours after stimulation, MMP-13 in culture supernatant by ELISA; read-out: Inhibition rate (%) at 30 μmol/L
Description: MMP-13 Production Inhibition Test
6.8×10^3 human cartilage derived cell line SW1353 cells were suspended in 100 μL of Dulbecco modified Eagle's medium supplemented with 10% fetal calf serum, plated on 96-well plates and cultured for 3 days. After the culture medium was changed to Dulbecco modified Eagle's medium containing 0.2% lactalbumin hydrolysate and the cells were cultured for 6 hours, test compounds were added and then IL-1β was added to obtain the final concentration of 10 ng/mL 1 hour later. 16 hours after the stimulation, supernatant was collected and the amount of MMP-13 in the culture supernatant was determined with an ELISA kit (Amersham). The inhibition rate was calculated from the amount of MMP-13 in the presence of a test compound assuming that the amount of MMP-13 was 100% in the absence of the test compound.

| Structure (SMILES) | inhibition at 30 µM |
| --- | --- |
| COc1cccc(CCc2ccc(C(=O)O)c(Nc3ccc(F)cc3)c2)c1 [Example 166, 2-(4-Fluoroanilino)-4-(2-(3-methoxyphenyl)ethyl)benzoic acid] | 92% |
| O=C(O)c1ccc(CCc2ccccc2)cc1Nc1cccc2cnccc12 [Example 360, 2-((Isoquinolin-5-yl)amino)-4-phenethylbenzoic acid trifluoroacetate] | 97% |
| O=C(O)c1ccc(Oc2ccccc2)cc1Nc1ccccc1 [Example 46, 2-Anilino-4-phenoxybenzoic acid] | 93% |
| COc1cccc(CCc2ccc(C(=O)O)c(Nc3ccccc3C)c2)c1 [Example 290, 4-(2-(3-Methoxyphenyl)ethyl)-2-(2-methylanilino)benzoic acid] | 98% |
| O=C(O)c1ccc(CCCc2ccccc2)cc1Nc1ccc(F)cc1 [Example 81, 2-(4-fluoroanilino)-4-(3-phenylpropyl)benzoic acid] | 97% |
| O=C(O)c1ccc(N2CCc3ccccc32)cc1Nc1cccc(O)c1 [Example 286, 2-((3-hydroxyphenyl)amino)-4-(indolin-1-yl)benzoic acid] | 96% |
| O=C(O)c1ccc(NCc2ccccc2)cc1Nc1ccc(F)cc1 [Example 67, 4-(benzylamino)-2-(4-fluoroanilino)benzoic acid] | 67% |
| Cc1cccc(Nc2cc(CCc3ccccc3)ccc2C(=O)O)c1C [Example 173, 2-(2,3-Dimethylanilino)-4-phenethylbenzoic acid] | 97% |
| O=C(O)c1ccc(Oc2ccccc2)cc1NCc1ccccc1 [Example 52, 2-(benzylamino)-4-phenoxybenzoic acid] | 77% |
| COc1ccc(Nc2cc(Oc3ccccc3)ccc2C(=O)O)c(OC)c1 [Example 45, 2-(2,4-Dimethoxyanilino)-4-phenoxybenzoic acid] | 73% |
| O=C(O)c1ccc(N2CCc3ccccc32)cc1Nc1ccc(F)cc1 [Example 243, 2-(4-fluoroanilino)-4-(indolin-1-yl)benzoic acid] | 97% |
| O=C(O)c1ccc(-c2ccccc2)cc1Nc1cccc2cccnc12 [Example 340, 4-Phenyl-2-((quinolin-8-yl)amino)benzoic acid] | 97% |
| COc1ccc(-c2ccc(C(=O)O)c(Nc3ccc(F)cc3)c2)cc1 [Example 9, 2-(4-fluoroanilino)-4-(4-methoxyphenyl)benzoic acid] | 93% |
| O=C(O)c1ccc(-c2cccc3[nH]ccc23)cc1Nc1ccc(F)cc1 [Example 234, 2-(4-fluoroanilino)-4-(1H-indol-4-yl)benzoic acid] | 97% |
| COc1ccc(Nc2cc(-c3ccccc3)ccc2C(=O)O)cc1 [Example 185, 2-(4-methoxyanilino)-4-phenylbenzoic acid] | 79% |
| O=C(O)c1ccc(CCc2ccccc2)cc1Nc1cc(-c2ccccc2)n[nH]1 [Example 329, 4-Phenethyl-2-((3-phenyl-1H-pyrazol-5-yl)amino)benzoic acid] | 96% |
| O=C(O)c1ccc(Nc2ccccc2)cc1Nc1ccc(F)cc1 [Example 63, 4-anilino-2-(4-fluoroanilino)benzoic acid] | 67% |
| Cc1ccc(-c2ccc(C(=O)O)c(Nc3ccc(F)cc3)c2)cc1C [Example 214, 4-(3,4-Dimethylphenyl)-2-(4-fluoroanilino)benzoic acid] | 98% |
| O=C(O)c1ccc(CCc2ccccc2)cc1Nc1ccccc1OC(F)(F)F [Example 199, 4-Phenethyl-2-(2-(trifluoromethoxy)anilino)benzoic acid] | 97% |
| Cc1ccc(CCc2ccc(C(=O)O)c(Nc3ccc(F)cc3)c2)cc1 [Example 252, 2-(4-Fluoroanilino)-4-(2-(4-methylphenyl)ethyl)benzoic acid] | 96% |
| CC(=O)Nc1cccc(CCc2ccc(C(=O)O)c(Nc3ccc(F)cc3)c2)c1 [Example 262, 4-(2-(3-Acetamidophenyl)ethyl)-2-(4-fluoroanilino)benzoic acid] | 80% |
| O=C(O)c1ccc(/C=C/c2cccc(O)c2)cc1Nc1ccc(F)cc1 [Example 126, 2-(4-fluoroanilino)-4-((E)-2-(3-hydroxyphenyl)vinyl)benzoic acid] | 94% |
| O=C(O)c1ccc(NCCCc2ccccc2)cc1Nc1ccc(F)cc1 [Example 69, 2-(4-Fluoroanilino)-4-((3-phenylpropyl)amino)benzoic acid] | 94% |
| O=C(O)c1ccc(CCc2ccccc2)cc1Nc1ccc(C(F)(F)F)cc1 [Example 170, 4-Phenethyl-2-(4-(trifluoromethyl)anilino)benzoic acid] | 97% |

| Structure (SMILES) | inhibition at 30 µM |
| --- | --- |
| CN(C)c1ccccc1Nc1cc(-c2ccccc2)ccc1C(=O)O [Example 372, 2-((2-(dimethylamino)phenyl)amino)-4-phenylbenzoic acid] | 97% |
| O=C(O)c1ccc(-c2cccc(Cl)c2)cc1Nc1cccc(O)c1 [Example 271, 4-(3-chlorophenyl)-2-((3-hydroxyphenyl)amino)benzoic acid] | 97% |
| COc1ccccc1-c1ccc(C(=O)O)c(Nc2ccc(F)cc2)c1 [Example 3, 2-(4-fluoroanilino)-4-(2-methoxyphenyl)benzoic acid] | 53% |
| O=C(O)c1ccc(-c2ccccc2)cc1NCC=Cc1ccccc1 [Example 350, 2-(Cinnamylamino)-4-phenylbenzoic acid] | 91% |
| Cc1ccccc1Nc1cc(-c2cccc(O)c2)ccc1C(=O)O [Example 280, 4-(3-Hydroxyphenyl)-2-(2-methylanilino)benzoic acid] | 90% |
| O=C(O)c1ccc(-c2ccc3[nH]ccc3c2)cc1Nc1ccc(F)cc1 [Example 13, 2-(4-Fluoroanilino)-4-(1H-indol-5-yl)benzoic acid] | 95% |
| O=C(O)c1ccc(Oc2ccccc2)cc1Nc1ccc2c(c1)OCO2 [Example 43, 2-((Benzo-1,3-dioxol-5-yl)amino)-4-phenoxybenzoic acid] | 93% |
| O=C(O)c1ccc(CCc2ccccc2)cc1Nc1ccccc1C(F)(F)F [Example 169, 4-phenethyl-2-(2-(trifluoromethyl)anilino)benzoic acid] | 97% |
| O=C(O)c1ccc(CCc2ccccc2)cc1Nc1cccc(Cl)c1 [Example 200, 2-(3-chloroanilino)-4-phenethylbenzoic acid] | 97% |
| O=C(O)c1ccc(NS(=O)(=O)c2ccccc2)cc1Nc1ccc(F)cc1 [Example 91, 4-(Benzenesulfonamido)-2-(4-fluoroanilino)benzoic acid] | 53% |
| O=C(O)c1ccc(CCc2ccc3c(c2)OCCO3)cc1Nc1cccc(O)c1 [Example 293, 4-(2-(2,3-dihydro[1,4]benzodioxin-6-yl)ethyl)-2-((3-hydroxyphenyl)amino)benzoic acid] | 87% |
| Cc1ccc(Nc2cc(CCc3ccccc3)ccc2C(=O)O)c(C)c1 [Example 172, 2-(2,4-Dimethylanilino)-4-phenethylbenzoic acid] | 97% |
| O=C(O)c1ccc(CCc2ccccc2)cc1Nc1ccc(-n2cccn2)cc1 [Example 363, 4-Phenethyl-2-(4-(1H-pyrazol-1-yl)phenylamino)benzoic acid] | 96% |
| O=C(O)c1ccc(-c2ccccc2)cc1Nc1ccc(F)cc1 [Example 37, 2-(4-fluoroanilino)-4-phenylbenzoic acid] | 92% |
| CC(=O)c1ccc(-c2ccc(C(=O)O)c(Nc3ccc(F)cc3)c2)cc1 [Example 15, 4-(4-Acetylphenyl)-2-(4-fluoroanilino)benzoic acid] | 91% |
| O=C(O)c1ccc(-c2ccccc2)cc1Nc1cccc(OC(F)(F)F)c1 [Example 191, 4-Phenyl-2-(3-(trifluoromethoxy)anilino)benzoic acid] | 97% |
| O=C(O)c1ccc(-c2ccc3occc3c2)cc1Nc1ccc(F)cc1 [Example 225, 4-(Benzofuran-5-yl)-2-(4-fluoroanilino)benzoic acid] | 98% |
| O=C(O)c1ccc(CCc2ccc(OC(F)(F)F)cc2)cc1Nc1ccc(F)cc1 [Example 259, 2-(4-fluoroanilino)-4-(2-(4-(trifluoromethoxy)phenyl)ethyl)benzoic acid] | 96% |
| O=C(O)c1ccc(/C=C/c2ccc3c(c2)OCO3)cc1Nc1ccc(F)cc1 [Example 140, 4-((E)-2-(Benzo-1,3-dioxol-5-yl)vinyl)-2-(4-fluoroanilino)benzoic acid] | 93% |
| O=C(O)c1ccc(-c2ccccc2)cc1Nc1ccc(OC(F)(F)F)cc1 [Example 190, 4-Phenyl-2-(4-(trifluoromethoxy)anilino)benzoic acid] | 97% |
| O=C(O)c1ccc(NC(=O)c2csc3ccccc23)cc1Nc1ccc(F)cc1 [Example 87, 4-(benzothiophene-3-carboxamido)-2-(4-fluoroanilino)benzoic acid] | 97% |
| O=C(O)c1ccc(-c2ccccc2)cc1Nc1ccccc1Cl [Example 343, 2-(2-Chloroanilino)-4-phenylbenzoic acid] | 98% |
| CS(=O)(=O)Nc1ccc(-c2ccc(C(=O)O)c(Nc3ccc(F)cc3)c2)cc1 [Example 12, 2-(4-Fluoroanilino)-4-(4-(methanesulfonamido)phenyl)benzoic acid] | 75% |
| O=C(O)c1ccc(/C=C/c2ccc(F)cc2)cc1Nc1ccc(F)cc1 [Example 132, 2-(4-Fluoroanilino)-4-((E)-2-(4-fluorophenyl)vinyl)benzoic acid] | 95% |
